19 compounds from ChEMBL document CHEMBL1142090, “Substrate competition studies using whole-cell accumulation assays with the major tripartite multidrug efflux pumps of Escherichia coli” (2007) can be followed below.

Activity calls are given as the source filed them. No cut-off for these calls is given here.

Experiment [1] concerns Escherichia coli. In words: Antibacterial activity against Escherichia coli AG102MB after 24 hrs. In kind it is functional.
The test system of experiment [2] is Escherichia coli. In words: Antibacterial activity against Escherichia coli HNCE4 after 24 hrs. In kind it is functional. The conditions noted are these: HNCE4, 24 h.
Experiment [3] deals with Escherichia coli. The experiment is described as follows: Antibacterial activity against Escherichia coli AG102 with marR1 mutation after 24 hrs. In kind it is functional. The conditions noted are these: AG102, 24 h.
The test system of experiment [4] is Escherichia coli. In words: Effect on modulation in uptake of [3H]progesterone in Escherichia coli HNCE4. In kind it is functional, organism-based.
The subject of experiment [5] is Escherichia coli. The experiment is described as follows: Effect on modulation in uptake of [3H]progesterone in Escherichia coli AG102MB. In kind it is functional, organism-based.
Experiment [6] relates to Escherichia coli. The experiment is described as follows: Effect on modulation in uptake of [3H]testosterone in Escherichia coli AG102 with marR1 mutation. In kind it is functional, organism-based.
Experiment [7] deals with Escherichia coli. The experiment is described as follows: Effect on modulation in uptake of [3H]hydrocortisone in Escherichia coli AG102 with marR1 mutation. In kind it is functional, organism-based.
In experiment [8] the test system is Escherichia coli. In words: Increase in [3H]testosterone uptake in Escherichia coli AG102MB at 100 uM. In kind it is functional, organism-based.
For experiment [9], the system named is Escherichia coli. In words: Increase in [3H]testosterone uptake in Escherichia coli HNCE4 at 100 uM. In kind it is functional, organism-based.
Experiment [10] deals with Escherichia coli. The experiment is described as follows: Increase in [3H]testosterone uptake in Escherichia coli AG102 at 100 uM. In kind it is functional, organism-based.

Turning to `CN(C)c1ccc(C(=C2C=CC(=[N+](C)C)C=C2)c2ccc(N(C)C)cc2)cc1.[Cl-]` [GENTIAN VIOLET], the minimum inhibitory concentration (MIC) in experiment [1] came out at 0.5 µg/mL; in experiment [2], 8 µg/mL; in experiment [3], 32 µg/mL.
On the same counts, the results for `CC[C@H]1OC(=O)[C@H](C)[C@@H](O[C@H]2C[C@@](C)(OC)[C@@H](O)[C@H](C)O2)[C@H](C)[C@@H](O[C@@H]2O[C@H](C)C[C@H](N(C)C)[C@H]2O)[C@](C)(O)C[C@@H](C)[C@@H]2N[C@@H](COCCOC)O[C@H]([C@H]2C)[C@]1(C)O` [DIRITHROMYCIN] are 16 µg/mL, 16 µg/mL and 256 µg/mL.
On the same counts, the results for `CO[C@H]1C[C@H](O[C@H]2[C@H](C)[C@@H](O[C@@H]3O[C@H](C)C[C@H](N(C)C)[C@H]3O)[C@@H](C)C[C@@]3(CO3)C(=O)[C@H](C)[C@@H](O)[C@@H](C)[C@@H](C)OC(=O)[C@@H]2C)O[C@@H](C)[C@@H]1O` [OLEANDOMYCIN] are 128 µg/mL, 256 µg/mL and more than 512 µg/mL.
As to `CC[C@H]1OC(=O)[C@H](C)[C@@H](O[C@H]2C[C@@](C)(OC)[C@@H](O)[C@H](C)O2)[C@H](C)[C@@H](O[C@@H]2O[C@H](C)C[C@H](N(C)C)[C@H]2O)[C@](C)(O)C[C@@H](C)C(=O)[C@H](C)[C@@H](O)[C@]1(C)O` [ERYTHROMYCIN], the result in experiment [4] and in [5] was Active. Also, the MIC was found to be 4 µg/mL in [1], 8 µg/mL in [2] and 128 µg/mL in experiment [3].
As to `CCCCCCCCCCCCOS(=O)(=O)[O-].[Na+]` [SODIUM LAURYL SULFATE], the outcome in [6] and in experiment [7] was Active. For the same compound, the MIC turned out to be 62.5 µg/mL in experiment [1], 125 µg/mL in experiment [2] and 1000 µg/mL in experiment [3].
As for `CC(=O)O[C@H]1C[C@@]2(C)[C@@H](C[C@@H](O)[C@H]3[C@@]4(C)CC[C@@H](O)[C@@H](C)[C@@H]4CC[C@@]32C)/C1=C(\CCC=C(C)C)C(=O)O` [FUSIDIC ACID], the MIC is 16 µg/mL in experiment [1], 128 µg/mL in [2] and more than 512 µg/mL in [3].
On the same counts, the results for `CC[C@H]1OC(=O)[C@H](C)[C@@H](O[C@H]2C[C@@](C)(OC)[C@@H](O)[C@H](C)O2)[C@H](C)[C@@H](O[C@@H]2O[C@H](C)C[C@H](N(C)C)[C@H]2O)[C@](C)(O)C[C@@H](C)/C(=N\OCOCCOC)[C@H](C)[C@@H](O)[C@]1(C)O` [ROXITHROMYCIN] are 64 µg/mL, 128 µg/mL and 512 µg/mL.
On the same counts, the results for `NC[C@H]1O[C@H](O[C@H]2[C@H](O)[C@@H](O[C@H]3O[C@H](CO)[C@@H](O)[C@H](N)[C@H]3O)[C@H](N)C[C@@H]2N)[C@H](O)[C@@H](O)[C@@H]1O` [KANAMYCIN] are more than 512 µg/mL, more than 512 µg/mL and 8 µg/mL.
For the compound `CC[n+]1c(-c2ccccc2)c2cc(N)ccc2c2ccc(N)cc21.[Br-]` [HOMIDIUM BROMIDE], the values for the minimal inhibitory concentration (MIC) in experiment [1], in experiment [2] and in experiment [3] were 4 µg/mL, 32 µg/mL and 256 µg/mL, respectively.
On the same counts, the results for `C[C@H](CCC(=O)O)[C@H]1CC[C@H]2[C@@H]3[C@H](O)C[C@@H]4C[C@H](O)CC[C@]4(C)[C@H]3C[C@H](O)[C@]12C` [CHOLIC ACID] are 4000 µg/mL, 2000 µg/mL and 16000 µg/mL.
On the same counts, the results for `CN(C)[C@@H]1C(O)=C(C(N)=O)C(=O)[C@@]2(O)C(O)=C3C(=O)c4c(O)cccc4[C@@](C)(O)[C@H]3C[C@@H]12` [TETRACYCLINE] are 2 µg/mL, 2 µg/mL and 8 µg/mL.
On the same counts, the results for `COC(=O)[C@H]1[C@H]2C[C@@H]3c4[nH]c5cc(OC)ccc5c4CCN3C[C@H]2C[C@@H](OC(=O)c2cc(OC)c(OC)c(OC)c2)[C@@H]1OC` [RESERPINE] are 128 µg/mL, 128 µg/mL and 256 µg/mL.
Consider `CC[C@H]1OC(=O)C[C@@H](O)[C@H](C)[C@@H](O[C@@H]2O[C@H](C)[C@@H](O[C@H]3C[C@@](C)(O)[C@@H](O)[C@H](C)O3)[C@H](N(C)C)[C@H]2O)[C@@H](CC=O)C[C@@H](C)C(=O)/C=C/C(C)=C/[C@@H]1CO[C@@H]1O[C@H](C)[C@@H](O)[C@@H](OC)[C@H]1OC` [TYLOSIN], for which the MIC was 128 µg/mL in [1], 64 µg/mL in [2] and more than 512 µg/mL in experiment [3].
On the same counts, the results for `O=C(N[C@H](CO)[C@H](O)c1ccc([N+](=O)[O-])cc1)C(Cl)Cl` [CHLORAMPHENICOL] are 2 µg/mL, more than 128 µg/mL and 8 µg/mL.
On the same counts, the results for `CC1(C)S[C@@H]2[C@H](NC(=O)[C@H](N)c3ccccc3)C(=O)N2[C@H]1C(=O)O` [AMPICILLIN] are 16 µg/mL, 16 µg/mL and 32 µg/mL.
Consider `O=C(O)c1cn(C2CC2)c2cc(N3CCNCC3)c(F)cc2c1=O` [CIPROFLOXACIN], for which the result in experiment [4] and in experiment [5] was Active. The MIC in experiment [1] was 0.0625 µg/mL; in experiment [2], 0.0625 µg/mL; in experiment [3], more than 0.25 µg/mL.
For `CO[C@@H]1[C@@H](OC(N)=O)[C@@H](O)[C@H](Oc2ccc3c(O)c(NC(=O)c4ccc(O)c(CC=C(C)C)c4)c(=O)oc3c2C)OC1(C)C` [NOVOBIOCIN], the MIC in experiment [1] is 4 µg/mL; in experiment [2] it was 4 µg/mL; in [3], 512 µg/mL.
In the case of `CO[C@@H]1[C@@H](O[C@@H]2O[C@H](C)[C@@H](O[C@H]3C[C@@](C)(O)[C@@H](OC(=O)CC(C)C)[C@H](C)O3)[C@H](N(C)C)[C@H]2O)[C@@H](CC=O)C[C@@H](C)[C@@H](O)/C=C/C=C/C[C@@H](C)OC(=O)C[C@H]1OC(C)=O` [JOSAMYCIN], the MIC is 32 µg/mL in experiment [1], 4 µg/mL in [2] and more than 512 µg/mL in experiment [3].
In the case of `N#CC(C#N)=NNc1cccc(Cl)c1` [CARBONYL CYANIDE M-CHLOROPHENYLHYDRAZONE], the outcome in experiment [8], in [9] and in experiment [10] was Active. In addition, the MIC in [1] was 32 µM; in [2] it was 16 µM; in experiment [3], 128 µM.
